One molecule from paper PMC5827777, “Synthesis and biological evaluation of RGD and isoDGR peptidomimetic-α-amanitin conjugates for tumor-targeting” (Beilstein Journal of Organic Chemistry, 2018) can be followed below.

Like-named read-outs stand apart in the source and are kept apart here.

Experiment [1] concerns U87 (αVβ3+, αVβ5+, αVβ6−, α5β1+). The settings on record: read-out: IC50 U87, inhibition of cell viability, 96 hours. The text has this: (§1) However, it should be noted that these cell lines overexpress other integrins (α5β1 in U87, αVβ6 in MDA-MB-468, and αVβ5 in both). […]
(§2) described recently.[S1] […] The purity of […]
(§3) the cell lines was validated using the Multiplex cell Contamination Test by Multiplexion (Heidelberg, Germany) as described recently.[S2]
(§4) U87-MG, MDA-MB 468 and A549 cells were cultivated continuously for not more than 3 months in MEM Eagle´s, DMEM or Ham´s F12 medium, respectively, supplemented with 10% heat inactivated fetus calf serum, L-glutamine and antibiotics. Cell lines were maintained at 37 °C and 5% CO2 in a high humidity atmosphere.
(§5) Cell therapy and viability assay
(§6) Cell viability assays were performed in U87-MG, A549 and MDA-MB 468 cell lines according to the following procedure: 2 × 10^3 cells/well were plated in 96-well black clear bottom plates (Perkin Elmer) and incubated overnight. […]
(§7) in cell culture media. The compounds were added to the cell culture and incubated for additional […]
(§8) was determined with the CellTiterGlo 2.0 assay (Promega) in accordance to manufacturer’s instructions. The cell viability was calculated in relation to the non-treated controls for each cell line. All samples were measured in triplicate.
(§9) All samples were measured in triplicate.

Experiment [2] has as its system MDA-MB-468 (αVβ3−, αVβ5+, αVβ6+, α5β1−). The settings on record: read-out: IC50 MDA-MB-468, inhibition of cell viability, 96 hours.
Text: as §1, §2, §3, §4, §5, §6, §7, §8, §9

In experiment [3] the test system is A549 cells (human lung carcinoma, αVβ3−). Nature of the experiment: cells. Type of experiment: cell-based. The settings on record: 96 hours treatment; triplicate; read-out: IC50 A549 (αVβ3−), inhibition of cell viability. How it is done:
(§10) The cell lines were treated with different concentrations of the free drug α-amanitin and conjugates 7–11 for 96 hours. […]
as §4, with “described recently.[S1] The SNP profiles matched known profiles or were unique. The purity of the cell lines was validated using the Multiplex cell Contamination Test by Multiplexion (Heidelberg, Germany) as described recently.[S2] No mycoplasma, SMRV or interspecies contamination was detected. U87-MG,” for “U87-MG,”
as §5
Cell viability assays were performed in U87-MG, A549 and MDA-MB 468 cell lines according to the following procedure: 2 × 10^3 cells/well were plated in 96-well black clear bottom plates (Perkin Elmer) and incubated overnight. 1:5 serial dilutions of compounds 7–11 were prepared in cell culture media. The compounds were added to the cell culture and incubated for additional 96 h. Starting concentration of compounds 7–11 in the wells was 1 × 10−5 M and cell viability was determined with the CellTiterGlo 2.0 assay (Promega) in accordance to manufacturer’s instructions. The cell viability was calculated in relation to the non-treated controls for each cell line. All samples were measured in triplicate. Data analysis was carried out using software GraphPad Prism (GraphPad Software Inc., La Jolla, CA, USA). […]

Experiment [4] concerns U87 cells (human glioblastoma, αVβ3+). Nature of the experiment: cells. The experiment is classed as cell-based. On the procedure:
as §10
as §4, with “described recently.[S1] The SNP profiles matched known profiles or were unique. The purity of the cell lines was validated using the Multiplex cell Contamination Test by Multiplexion (Heidelberg, Germany) as described recently.[S2] No mycoplasma, SMRV or interspecies contamination was detected. U87-MG,” for “U87-MG,”
as §5
Cell viability assays were performed in U87-MG, A549 and MDA-MB 468 cell lines according to the following procedure: 2 × 10^3 cells/well were plated in 96-well black clear bottom plates (Perkin Elmer) and incubated overnight. 1:5 serial dilutions of compounds 7–11 were prepared in cell culture media. The compounds were added to the cell culture and incubated for additional 96 h. Starting concentration of compounds 7–11 in the wells was 1 × 10−5 M and cell viability was determined with the CellTiterGlo 2.0 assay (Promega) in accordance to manufacturer’s instructions. The cell viability was calculated in relation to the non-treated controls for each cell line. All samples were measured in triplicate. Data analysis was carried out using software GraphPad Prism (GraphPad Software Inc., La Jolla, CA, USA).
Competition experiment of compounds 10 and 11
The competition experiment s were performed in U87-MG and MDA-MB 468 cell lines according to the following procedure: 2 × 10^3 cells/well were plated in 96-well black clear bottom plates (Perkin Elmer) and incubated overnight. A solution containing 1 × 10−4 M of the conjugates 10 or 11 and 5 × 10−3 M of cilengitide (50-fold excess of ligand in comparison to the conjugate) was prepared in the growth medium and 1:5 serial dilutions were prepared in cell culture media. The compounds were added to cell culture and incubated for 96 h. The starting concentration of the compounds in the wells was 0.01 mM whereas that of cilengitide was 0.5 mM. The cell viability was determined with the CellTiterGlo 2.0 assay (Promega) in accordance to manufacturer’s instructions and the viability was calculated in relation to the non-treated controls for each cell line. All samples were measured in triplicate. Data analysis was carried out using software GraphPad Prism (GraphPad Software Inc., La Jolla, CA, USA).
[S1] F. Castro, W. G. Dirks, S. Fähnrich, A. Hotz-Wagenblatt, M. Pawlita, M. Schmitt, Int. J. Cancer […]
[S2] M. Schmitt, M. Pawlita, Nucleic Acids Res. 2009, 37, e119.

Where [5] appears, read: + 50-fold excess of cilengitide.

For `CC[C@H](C)[C@@H]1NC(=O)CNC(=O)[C@@H]2Cc3c([nH]c4cc(OCc5ccc(NC(=O)[C@H](C)NC(=O)[C@@H](NC(=O)CCCC(=O)NCc6ccc(CN7C(=O)[C@H]8CC(=O)N[C@H](C(=O)O)CC(=O)NCC(=O)N[C@@H](CCCNC(=N)N)C(=O)NC[C@H]7C(=O)N8)cc6)C(C)C)cc5)ccc34)[S@+]([O-])C[C@H](NC(=O)CNC1=O)C(=O)N[C@@H](CC(N)=O)C(=O)N1C[C@H](O)C[C@H]1C(=O)N[C@@H]([C@@H](C)[C@@H](O)CO)C(=O)N2` [Compound 10, cyclo[DKP-isoDGR]-Val-Ala-α-amanitin], the concentration for half-maximal inhibition (IC50) in experiment [1] (setting [5]) stood at 0.106 ± 0.0116 µM; in experiment [1] (without cilengitide), 0.107 ± 0.0268 µM; in experiment [2] (setting [5]), 0.259 ± 0.0552 µM; in experiment [2] (without cilengitide), 0.047 ± 0.0211 µM; in experiment [3], 0.217 ± 0.0983 µM; in experiment [4] (96 hours treatment, triplicate, read-out: IC50 U87 (αVβ3+), inhibition of cell viability) it was 0.143 ± 0.0338 µM. Further, in experiment [4] (in U87, A549 and MDA-MB-468 cell lines, Table 3 entry 1 vs entry 5), the “more potent than α-amanitin” value is listed as 2.4–3.1 times.

One may read the IC50 as the concentration needed to halve the response being measured.
